The record followed here is patent US20220289732A1, “HETEROCYCLIC WDR5 INHIBITORS AS ANTI-CANCER COMPOUNDS” (NOVARTIS AG, priority 2019, published 2022).

Test [1] addresses wild type MLL1 four-member complex (MLL1-4C) (Homo sapiens, UniProt P61964). In words: MLL1 LC-MS assay (SAH production). It is filed as biochemical. To be noted: read-out: (b) MLL LCMS Peptide Val.v.1 Qualified AC50. Put shortly:
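SAH formation, measured by LC-MS/MS after a TFA quench containing d4-SAH, was normalised to no-compound and no-enzyme controls and fitted to a dose-response curve for IC50. Reactions ran 120 min at rt (pH 8.0 Tris buffer) with final 30 nM MLL1 four-member complex, 2.5 μM SAM and 10 μM biotinylated H3[1-21] peptide, after a 20-min enzyme/SAM-compound preincubation.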

In the next test the target is WDR5 (Homo sapiens, UniProt P61964). The test can be described thus: WDR5 HTRF binding assay. The settings on record: read-out: (a) WDR5 HTRF Pep Val v.1[Inhibitor/IC50]Qualified AC50. Put shortly: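 In this HTRF displacement format, biotinylated MLL1 WIN peptide (3762-3773, 20 nM) binds WDR5 (6 nM) in 25 mM Hepes pH 7.5 with 100 mM NaCl, 2 mM DTT and 0.1% BSA for 20 min at rt. Detection used streptavidin-APC/anti-His-Eu for 1 hr. IC50 came from dose-response fits of normalized signal; 15 nM biotin-PEG-His peptide served as counter assay.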
A general note: In TR-FRET formats the signal depends on donor and acceptor labels being close together.

Another test deals with MV4-11 cells. The test can be described thus: MV4-11 6-day cell growth CTG (CellTiter-Glo) assay. It is filed as cell-based. To be noted: Homo sapiens, MV4-11, 144 h, 6 days, read-out: (c) MLL/WDR5 cell proliferation assay//MLL/WDR5 proliferation MV4:11 Qualified AC50. Put shortly:
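IC50 comes from a dose-response fit of % inhibition relative to DMSO controls, with viable cells measured by CellTiter-Glo luminescence. Compounds were tested over 12 points (1:3, starting at 50 μM final) on MV4-11 cells plated at 300/well and grown 6 days.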
Background: In ATP-based viability assays light output follows the ATP content of the culture.

Regarding `CCOc1cc([C@H](C)N2CCc3c(CN(C)C)cc(Cn4ccnc4NC)cc3C2=O)ncc1C#N` [Example 50, (S)-6-(1-(5-((dimethylamino)methyl)-7-((2-(methylamino)-1H-imidazol-1-yl)methyl)-1-oxo-3,4-dihydroisoquinolin-2(1H)-yl)ethyl)-4-ethoxynicotinonitrile], the AC50 (in test [1]; in the test on MV4-11 cells) was 10 to 1000 nM each time. Also, the IC50 at WDR5 was in the range of 10 to 1000 nM.

Take `CNc1nccn1Cc1cc(CN2CC(F)C2)c2c(c1)C(=O)N([C@@H](C)c1cnc(F)c(OC)c1)CC2` [Example 43, (S)-2-(1-(6-fluoro-5-methoxypyridin-3-yl)ethyl)-5-((3-fluoroazetidin-1-yl)methyl)-7-((2-(methylamino)-1H-imidazol-1-yl)methyl)-3,4-dihydroisoquinolin-1(2H)-one]: the AC50 (in test [1]; with MV4-11 cells) was 10 to 1000 nM in each case. Moreover, the IC50 at WDR5 lay in the range of 10 to 1000 nM.

Take `CCOc1cc(C(C)N2CCc3c(cc(CCN(C)CC)cc3C(O)C(F)(F)F)C2=O)ncc1C#N` (stereo not drawn) [Example 259, 4-ethoxy-6-(1-(7-(2-(ethyl(methyl)amino)ethyl)-1-oxo-5-(2,2,2-trifluoro-1-hydroxyethyl)-3,4-dihydroisoquinolin-2(1H)-yl)ethyl)nicotinonitrile]: the AC50 (in test [1]; in the test on MV4-11 cells) was 10 to 1000 nM in each case. Further, the IC50 at WDR5 was below 10 nM.

For the compound `CNc1nccn1Cc1cc2c(c(-c3ccnn3C)c1)CCN(Cc1ccc(F)c(OC)c1)C2=O` [Example 72, 2-(4-fluoro-3-methoxybenzyl)-5-(1-methyl-1H-pyrazol-5-yl)-7-((2-(methylamino)-1H-imidazol-1-yl)methyl)-3,4-dihydroisoquinolin-1(2H)-one], the AC50 (in test [1]; with MV4-11 cells) was 10 to 1000 nM throughout. In addition, the IC50 at WDR5 lay within 10 to 1000 nM.

Take `CNc1nccn1Cc1cc(CN(C)CC(F)(F)F)c2c(c1)C(=O)N([C@@H](C)c1cc(OC)c(F)cn1)CC2` [Example 47, (S)-2-(1-(5-fluoro-4-methoxypyridin-2-yl)ethyl)-5-((methyl(2,2,2-trifluoroethyl)amino)methyl)-7-((2-(methylamino)-1H-imidazol-1-yl)methyl)-3,4-dihydroisoquinolin-1(2H)-one]: the AC50 (in test [1]; with MV4-11 cells) was 10 to 1000 nM each time. In addition, the IC50 on WDR5 lay within 10 to 1000 nM.

As for `CCOc1cc([C@H](C)N2CCc3c(CN4CCOCC4)cc(Cn4ccnc4NC)cc3C2=O)ncc1C#N` [Example 12, (S)-4-ethoxy-6-(1-(7-((2-(methylamino)-1H-imidazol-1-yl)methyl)-5-(morpholinomethyl)-1-oxo-3,4-dihydroisoquinolin-2(1H)-yl)ethyl)nicotinonitrile], the AC50 (in test [1]; in the test with MV4-11 cells) was 10 to 1000 nM each time. For the same compound, on WDR5, the IC50 lay in the range of 10 to 1000 nM.

On to `CCOc1cc([C@H](C)N2CCc3c(CN4CC[C@H](F)C4)cc(Cn4ccnc4NC)cc3C2=O)ncc1C#N` [Example 9, 4-ethoxy-6-((S)-1-(5-(((S)-3-fluoropyrrolidin-1-yl)methyl)-7-((2-(methylamino)-1H-imidazol-1-yl)methyl)-1-oxo-3,4-dihydroisoquinolin-2(1H)-yl)ethyl)nicotinonitrile], for which the AC50 (in test [1]; in the test with MV4-11 cells) was 10 to 1000 nM throughout. The IC50 on WDR5 is below 10 nM.

In the case of `CCOc1cc([C@H](C)N2CCc3c(cc(Cn4ccnc4NC)cc3C3CC3)C2=O)ncc1C#N` [Example 83, (S)-6-(1-(5-cyclopropyl-7-((2-(methylamino)-1H-imidazol-1-yl)methyl)-1-oxo-3,4-dihydroisoquinolin-2(1H)-yl)ethyl)-4-ethoxynicotinonitrile], the AC50 (in test [1]; in the test on MV4-11 cells) was 10 to 1000 nM in each case. For the same compound, the IC50 on WDR5 was 10 to 1000 nM.

Take `CCOc1cc([C@H](C)N2CCc3c(cc(CCN(C)CC)cc3-c3cc(C)ncc3Cl)C2=O)ncc1C#N` [Example 166, (S)-6-(1-(5-(5-chloro-2-methylpyridin-4-yl)-7-(2-(ethyl(methyl)amino)ethyl)-1-oxo-3,4-dihydroisoquinolin-2(1H)-yl)ethyl)-4-ethoxynicotinonitrile]: the AC50 (in test [1]; in the test with MV4-11 cells) was 10 to 1000 nM each time. Moreover, at WDR5, the IC50 is below 10 nM.

With `CCOc1cc([C@H](C)N2CCc3c(cc(CCN4C[C@@H](O)C[C@@H]4C)cc3-c3ccc(F)nc3C)C2=O)ncc1C#N` [Example 227], the AC50 in test [1] is 10 to 1000 nM; in the test with MV4-11 cells it was 1000 to 25000 nM. Moreover, the IC50 at WDR5 fell in the range of 10 to 1000 nM.

With `CCOc1cc(CN2CCc3c(cc(CCN4C[C@@H](O)[C@H]4C)cc3-c3ccc(F)nc3C)C2=O)ncc1C#N` [Example 222], the AC50 (in test [1]; in the test with MV4-11 cells) was 10 to 1000 nM throughout. In addition, on WDR5, the IC50 was 10 to 1000 nM.

`CCOc1cc([C@H](C)N2CCc3c(CN4CC(F)C4)cc(Cn4ccnc4NC)cc3C2=O)ncc1F` [Example 39, (S)-2-(1-(4-ethoxy-5-fluoropyridin-2-yl)ethyl)-5-((3-fluoroazetidin-1-yl)methyl)-7-((2-(methylamino)-1H-imidazol-1-yl)methyl)-3,4-dihydroisoquinolin-1(2H)-one]: the AC50 (in test [1]; in the test on MV4-11 cells) was 10 to 1000 nM throughout. For the same compound, the IC50 on WDR5 is 10 to 1000 nM.

`CCOc1cc([C@H](C)N2CCc3c(cc(CCN4C[C@@H](O)[C@H]4C)cc3-c3cn(C)c(=O)cc3Cl)C2=O)ncc1C#N` [Example 215]: the AC50 (in test [1]; in the test with MV4-11 cells) was 10 to 1000 nM in each case. Moreover, the IC50 on WDR5 was below 10 nM.

Turning to `CNc1nccn1Cc1cc(CN2CC(F)(F)C2)c2c(c1)C(=O)N([C@@H](C)c1cnc(F)c(OC)c1)CC2` [Example 34, (S)-5-((3,3-difluoroazetidin-1-yl)methyl)-2-(1-(6-fluoro-5-methoxypyridin-3-yl)ethyl)-7-((2-(methylamino)-1H-imidazol-1-yl)methyl)-3,4-dihydroisoquinolin-1(2H)-one], the AC50 (in test [1]; with MV4-11 cells) was 10 to 1000 nM each time. Moreover, the IC50 at WDR5 was in the range of 10 to 1000 nM.

As to `CCOc1cc([C@H](C)N2CCc3c(cc(Cn4ccnc4NC)cc3C3CC3)C2=O)ncc1F` [Example 81, (S)-5-cyclopropyl-2-(1-(4-ethoxy-5-fluoropyridin-2-yl)ethyl)-7-((2-(methylamino)-1H-imidazol-1-yl)methyl)-3,4-dihydroisoquinolin-1(2H)-one], the AC50 (in test [1]; in the test on MV4-11 cells) was 10 to 1000 nM throughout. Moreover, the IC50 at WDR5 lay in the range of 10 to 1000 nM.

On to `CCOc1cc(CN2CCc3c(cc(CCN(C)CC)cc3-c3cc(OC)ncc3C)C2=O)ncc1C#N` [Example 164, 4-ethoxy-6-((7-(2-(ethyl(methyl)amino)ethyl)-5-(2-methoxy-5-methylpyridin-4-yl)-1-oxo-3,4-dihydroisoquinolin-2(1H)-yl)methyl)nicotinonitrile], for which the AC50 (in test [1]; in the test on MV4-11 cells) was 10 to 1000 nM each time. Moreover, the IC50 at WDR5 was below 10 nM.

For the compound `CCOc1cc([C@H](C)N2CCc3c(cc(CCN(C)CC)cc3-c3cc(C)cnc3C(F)F)C2=O)ncc1C#N` [Example 128, (S)-6-(1-(5-(2-(difluoromethyl)-5-methylpyridin-3-yl)-7-(2-(ethyl(methyl)amino)ethyl)-1-oxo-3,4-dihydroisoquinolin-2(1H)-yl)ethyl)-4-ethoxynicotinonitrile], the AC50 (in test [1]; in the test on MV4-11 cells) was 10 to 1000 nM in each case. Moreover, the IC50 on WDR5 is below 10 nM.

Take `CCOc1cc([C@H](C)N2CCc3c(cc(CCN(C)CC)cc3-c3cn(C(F)F)c(=O)cc3Cl)C2=O)ncc1C#N` [Example 174, (S)-6-(1-(5-(4-chloro-1-(difluoromethyl)-6-oxo-1,6-dihydropyridin-3-yl)-7-(2-(ethyl(methyl)amino)ethyl)-1-oxo-3,4-dihydroisoquinolin-2(1H)-yl)ethyl)-4 ethoxynicotinonitrile]: the AC50 (in test [1]; in the test on MV4-11 cells) was 10 to 1000 nM throughout. The IC50 on WDR5 was below 10 nM.

`CCOc1cc([C@H](C)N2CCc3c(cc(CCN(C)CC)cc3-c3cn(C)c(=O)c(C)c3C)C2=O)ncc1C#N` [Example 125, (S)-4-ethoxy-6-(1-(7-(2-(ethyl(methyl)amino)ethyl)-1-oxo-5-(1,4,5-trimethyl-6-oxo-1,6-dihydropyridin-3-yl)-3,4-dihydroisoquinolin-2(1H)-yl)ethyl)nicotinonitrile]: the AC50 (in test [1]; in the test with MV4-11 cells) was 10 to 1000 nM throughout. Besides, the IC50 at WDR5 was below 10 nM.

Take `CCOc1cc(C(C)N2CCc3c(cc(CCN(C)CC)cc3-c3cc(C(C)O)cnc3Cl)C2=O)ncc1C#N` (stereo not drawn) [Example 153, 6-(1-(5-(2-chloro-5-(1-hydroxyethyl)pyridin-3-yl)-7-(2-(ethyl(methyl)amino)ethyl)-1-oxo-3,4-dihydroisoquinolin-2(1H)-yl)ethyl)-4-ethoxynicotinonitrile]: the AC50 (in test [1]; in the test on MV4-11 cells) was 10 to 1000 nM each time. Besides, the IC50 on WDR5 is 10 to 1000 nM.

Consider `CCOc1cc([C@H](C)N2CCc3c(cc(CCN(C)CCOC)cc3-c3cc(C)ncc3C)C2=O)ncc1C#N` [Example 232], for which the AC50 (in test [1]; with MV4-11 cells) was 10 to 1000 nM each time. In addition, on WDR5, the IC50 was below 10 nM.
